Test results taken from patent publication US20040259959A1, “Method and pharmaceutical preparation for reducing the activity of cells” (priority 2001, published 2004).

Tests used:
[1] = tested on: LNCaP prostate cancer cell; experiment: DHT induced LNCaP prostate cancer cell proliferation ([3H]thymidine incorporation); assay type: cell-based; details: 3 days
Protocol: FIG. 2. […] LNCaP prostate cancer cell were preincubated for 24 hours in 1.5% serum and then growth ([^3]thymidine incorporation) was stimulated by addition of […] (DHT). Stimulated cells were treated for 3 days with the indicated concentrations of the phytoene and phytofluene (phytoene) mixture alone or in combination with 0.3 μM Lycopene (plus lycopene) (FIG. 2A). The high concentrations of lycopene and phytoene plus phytofluene (FIG. 2B) are indicated. Data presented are the mean±SE of 2-3 independent experiments performed in quadruplicates.
FIG. 3. […] LNCaP prostate cancer cell were preincubated for 24 hours in 1.5% serum and then growth ([^3]thynidine incorporation) was stimulated by addition of 10^−9 M dihydrotestosterone DHT). Stimulated cells were treated for 3 days with the indicated concentrations of the beta-carotene alone or in combination with 0.3 μM lycopene (FIG. 3A). The high concentrations of lycopene and beta-carotene (FIG. 3B) are indicated. Data presented are the mean±SE of 2-3 independent experiments performed in quadruplicates.

[2] = up to levels of 4 μM; cited from earlier work
[3] = tested on: MCF-7 mammary cancer cell; experiment: MCF-7 mammary cancer cell proliferation ([3H]thymidine incorporation), stimulated by 3% serum; assay type: cell-based
Protocol: FIG. 1. […] MCF-7 mammary cancer cell were preincubated for 24 hours in 0.5% serum and then growth ([^3H]thymidine incorporation) was stimulated by 3% serum. Stimulated cells were treated for 3 days with the indicated concentrations of the astaxanthin alone or in combination with 0.3 μM lycopene (FIG. 1A). The high concentrations of lycopene and astaxanthin (FIG. 1B) are indicated. Data presented are the mean±SE of 2-3 independent experiments performed in quadruplicates.
FIG. 4. […] MCF-7 mammary cancer cell were preincubated for 24 hours in 0.5% serum and then growth ([^3H]thymidine incorporation) was stimulated by 3% serum. Stimulated cells were treated for 3 days with the indicated concentrations of the phytoene and phytofluene (phytoene) mixture alone or in combination with 0.3 μM lycopene (FIG. 4A). The high concentrations of lycopene and phytoene plus phytofluene (FIG. 4B) are indicated. Data presented are the mean±SE of 2-3 independent experiments performed in quadruplicates.
FIG. 5. […] MCF-7 mammary cancer cell were preincubated for 24 hours in 0.5% serum and then growth ([^3H]thymidine incorporation) was stimulated by 3% serum. Stimulated cells were treated for 3 days with the indicated concentrations Of the beta-carotene alone or in combination with 0.3 μM lycopene (FIG. 5A). The high concentrations of lycopene and beta-carotene (FIG. 5B) are indicated. Data presented are the mean±SE of 2-3 independent experiments performed in quadruplicates.

[4] = subjects receiving high supplementation of lycopene; cited from earlier work
UV-B induced tumors = details: mice treated with phytoene; cited from earlier work
[5] = tested on: H-ras-induced cell transformation; details: mammalian cells producing phytoene; cited from earlier work
[6] = tested on: dimethylbenz(a)anthracene(DMBA)/UV-B induced tumors; details: mice; cited from earlier work

Row | Compound | effect of lycopene on the inhibitory effects of beta-carotene on DHT induced prostate cancer cell proliferation ([1]; 0.3 μM lycopene combined with beta-carotene, FIG. 3) | effect of lycopene on the inhibitory effects of phytoene and phytofluene on DHT induced prostate cancer cell proliferation ([1]; 0.3 μM lycopene combined with phytoene and phytofluene mixture, FIG. 2) | in-vitro activity with increasing concentration [2] | effect of lycopene on the inhibitory effects of astaxanthin on mammary cancer cell proliferation ([3]; MCF-7, 0.3 μM lycopene combined with astaxanthin, 3 days, FIG. 1) | effect of lycopene on the inhibitory effects of beta-carotene on mammary cancer cell proliferation ([3]; MCF-7, 0.3 μM lycopene combined with beta-carotene, 3 days, FIG. 5) | effect of lycopene on the inhibitory effects of phytoene and phytofluene on mammary cancer cell proliferation ([3]; MCF-7, 0.3 μM lycopene combined with phytoene and phytofluene mixture, 3 days, FIG. 4) | decrease in proliferation ([3]; breast cancer cells, lycopene alone at low concentration (0.3 μM)) | concentration of lycopene alone giving the same dramatic inhibition of cancer cells as the combination ([3]; lycopene alone) | serum concentration plateau [4] | UV-B induced tumors developed versus control mice (UV-B induced tumors) | resistance to H-ras-induced cell transformation [5] | treating DMBA/UV-B induced tumors [6]
1 | CC(C)=CCC/C(C)=C/C=C/C(C)=C/C=C/C(C)=C/C=C/C=C(C)/C=C/C=C(C)/C=C/C=C(\C)CCC=C(C)C [lycopene] | enhances the inhibitory effects | enhances the inhibitory effects | improved activity with the increase of concentration | enhances the inhibitory effects | enhances the inhibitory effects | enhances the inhibitory effects | no decrease in proliferation | 2 to 3 µM | 1000 to 1200 nM |  |  | 
2 | CC(C)=CCC/C(C)=C/CC/C(C)=C/CC/C(C)=C/C=C/C=C(\C)CC/C=C(\C)CC/C=C(\C)CCC=C(C)C [phytoene] |  |  |  |  |  |  |  |  |  | fewer UV-B induced tumors than the control mice | displayed resistance | ineffective
